Read-outs that look alike come from different tables or passages of the source.
Key:
mutant BRAF kinase = mutant BRAF kinase (Homo sapiens (Human), UniProt P15056, V600E); settings: read-out: BRAF V600E Kd, class symbols
[1] = system: panel of 290 distinct kinases (321 in the larger panel), excluding mutant variants; settings: kinase selectivity score, class symbols
wild type BRAF kinase [2] = biological target: T1, wild type BRAF kinase (Homo sapiens (Human), UniProt P15056); test: biochemical
RAF kinases = RAF kinases (Homo sapiens (Human), UniProt P04049); settings: read-out: RAF1 Kd, class symbols
Chain of RAF kinases (P04049 whole entry): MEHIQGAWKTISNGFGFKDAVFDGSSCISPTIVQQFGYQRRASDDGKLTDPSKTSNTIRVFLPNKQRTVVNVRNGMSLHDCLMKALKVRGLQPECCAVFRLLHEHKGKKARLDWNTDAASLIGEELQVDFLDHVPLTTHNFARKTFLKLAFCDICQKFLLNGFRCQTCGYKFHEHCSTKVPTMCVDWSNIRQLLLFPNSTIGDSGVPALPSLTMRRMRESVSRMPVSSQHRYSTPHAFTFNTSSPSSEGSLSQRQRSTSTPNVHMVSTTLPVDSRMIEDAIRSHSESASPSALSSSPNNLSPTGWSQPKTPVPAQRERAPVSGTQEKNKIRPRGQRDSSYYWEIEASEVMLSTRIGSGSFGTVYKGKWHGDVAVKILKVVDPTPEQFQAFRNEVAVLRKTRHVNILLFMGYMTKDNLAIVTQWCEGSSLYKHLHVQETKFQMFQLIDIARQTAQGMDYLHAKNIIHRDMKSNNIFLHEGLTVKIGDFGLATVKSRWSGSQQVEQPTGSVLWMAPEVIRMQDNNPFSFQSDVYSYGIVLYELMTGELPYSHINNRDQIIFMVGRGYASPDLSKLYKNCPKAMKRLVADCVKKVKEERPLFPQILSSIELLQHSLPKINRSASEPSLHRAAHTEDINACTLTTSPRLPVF
Experimental: The liganded beads were blocked with excess biotin and washed with blocking buffer (SeaBlock (Pierce), 1% BSA, 0.05% Tween 20, 1 mM DTT) to remove unbound ligand and to reduce non-specific binding. […] Test compounds were prepared as 100× stocks in DMSO and rapidly diluted into the aqueous environment. DMSO was added to control assays lacking a test compound. Primary screen interactions were performed in polypropylene 384-well plates in a final volume of 34 μL, while Kd determinations were performed in polystyrene 96-well plates in a final volume of 135 μL. […] The kinase concentration in the eluates was measured by quantitative PCR. Each kinase was tested individually against each compound. KdS were determined using eleven serial threefold dilutions. A selectivity score, which is a quantitative measure of selectivity of a compound against a panel of enzymes, may be calculated for a compound by dividing the number of enzymes for which a compound meets a set criteria, (for example, a binding constant of 100 nM or less), by the total number of enzymes tested. […] (Note, for those compounds tested in a larger kinase panel, as indicated by an asterisk (*) next to the S35 score, the divisor is 321 (i.e. the larger panel contains 321 distinct kinases, excluding mutant variants.)).

wild type BRAF kinase [3] = biological target: T1, wild type BRAF kinase; settings: read-out: BRAF WT Kd, class symbols
[4] = value marked * (larger kinase panel)

T1 sequence (P15056 whole entry): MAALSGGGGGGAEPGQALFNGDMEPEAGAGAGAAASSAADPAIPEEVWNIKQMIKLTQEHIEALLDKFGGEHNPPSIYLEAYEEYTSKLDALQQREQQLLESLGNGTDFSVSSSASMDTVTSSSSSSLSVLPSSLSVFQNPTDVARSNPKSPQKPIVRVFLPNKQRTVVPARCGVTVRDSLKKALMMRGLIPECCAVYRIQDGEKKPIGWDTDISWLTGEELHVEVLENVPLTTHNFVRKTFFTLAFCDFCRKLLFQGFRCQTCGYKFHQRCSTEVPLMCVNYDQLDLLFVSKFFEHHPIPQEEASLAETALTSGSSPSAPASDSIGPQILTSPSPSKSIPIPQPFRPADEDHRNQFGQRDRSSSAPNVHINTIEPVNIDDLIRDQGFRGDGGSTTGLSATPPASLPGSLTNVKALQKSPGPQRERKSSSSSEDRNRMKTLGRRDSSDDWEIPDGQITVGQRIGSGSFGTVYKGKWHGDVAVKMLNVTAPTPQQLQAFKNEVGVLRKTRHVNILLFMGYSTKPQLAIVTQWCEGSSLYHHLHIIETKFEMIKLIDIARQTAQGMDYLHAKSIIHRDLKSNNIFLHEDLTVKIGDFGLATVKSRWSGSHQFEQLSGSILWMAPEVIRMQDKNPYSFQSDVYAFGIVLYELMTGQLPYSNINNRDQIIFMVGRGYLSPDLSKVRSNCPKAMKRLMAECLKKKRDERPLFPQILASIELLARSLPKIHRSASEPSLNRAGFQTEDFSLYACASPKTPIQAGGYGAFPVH
Chain of mutant BRAF kinase (P15056 whole entry V600E): as the sequence (P15056 whole entry) above, with V600E counted along it

Compound | Kd (mutant BRAF kinase) | S35 ([1]; 290 distinct kinases) | Kd (wild type BRAF kinase [2]) | Kd (RAF kinases) | Kd (wild type BRAF kinase [3]) | S35 [1, 4]
COc1cc2ncnc(Oc3cccc(NC(=O)Nc4cc(C(C)(C)C)on4)c3)c2cc1O[C@H]1CCN(C)C1 [Ex 109, (S)-1-(5-tert-butylisoxazol-3-yl)-3-(3-(7-methoxy-6-(1-methylpyrrolidin-3-yloxy)quinazolin-4-yloxy)phenyl)urea] | < 250 nM | D (D > 0.40) | 250 to 500 nM | < 250 nM | – | –
COc1cc2ncnc(Oc3cccc(NC(=O)Nc4cc(C5CC5)no4)c3)c2cc1OC [Ex 124, 1-(3-cyclopropylisoxazol-5-yl)-3-(3-(6,7-dimethoxyquinazolin-4-yloxy)phenyl)urea] | < 250 nM | C (0.20 < C ≦ 0.40) | – | < 250 nM | < 250 nM | –
COc1cc2ncnc(Oc3cccc(NC(=O)Nc4cc(C5(C)CC5)on4)c3)c2cc1OC [Ex 127, 1-(3-(6,7-dimethoxyquinazolin-4-yloxy)phenyl)-3-(5-(1-methylcyclopropyl)isoxazol-3-yl)urea] | < 250 nM | C (0.20 < C ≦ 0.40) | – | < 250 nM | < 250 nM | –
COCC(C)(C)c1cc(NC(=O)Nc2cccc(Oc3ncnc4cc(OC)c(OC)cc34)c2)on1 [Ex 128, 1-(3-(6,7-dimethoxyquinazolin-4-yloxy)phenyl)-3-(3-(1-methoxy-2-methylpropan-2-yl)isoxazol-5-yl)urea] | < 250 nM | – | – | > 1000 nM | > 1000 nM | C* (0.20 < C ≦ 0.40)
COc1cc2ncnc(Oc3cccc(NC(=O)Nc4cc(C(C)C)on4)c3)c2cc1OC [Ex 133, 1-(3-(6,7-dimethoxyquinazolin-4-yloxy)phenyl)-3-(5-isopropylisoxazol-3-yl)urea] | < 250 nM | – | – | < 250 nM | < 250 nM | C* (0.20 < C ≦ 0.40)
COc1cc2ncnc(Sc3cccc(NC(=O)Nc4cc(C(C)C)on4)c3)c2cc1OC [Ex 134, 1-(3-(6,7-dimethoxyquinazolin-4-ylthio)phenyl)-3-(5-isopropylisoxazol-3-yl)urea] | < 250 nM | – | – | < 250 nM | < 250 nM | C* (0.20 < C ≦ 0.40)
COc1cc2ncnc(Oc3cccc(NC(=O)Nc4cc(C5CCCC5)on4)c3)c2cc1OC [Ex 135, 1-(5-cyclopentylisoxazol-3-yl)-3-(3-(6,7-dimethoxyquinazolin-4-yloxy)phenyl)urea] | < 250 nM | – | – | < 250 nM | < 250 nM | C* (0.20 < C ≦ 0.40)
COc1cc2ncnc(Oc3cccc(NC(=O)Nc4cc(C(C)(C)F)on4)c3)c2cc1OC [Ex 136, 1-(3-(6,7-dimethoxyquinazolin-4-yloxy)phenyl)-3-(5-(2-fluoropropan-2-yl)isoxazol-3-yl)urea] | < 250 nM | – | – | < 250 nM | < 250 nM | C* (0.20 < C ≦ 0.40)
COCCOc1cc2ncnc(Oc3cccc(NC(=O)Nc4ccc(OC)c(C(F)(F)F)c4)c3)c2cc1OC [Ex 139, 1-(4-methoxy-3-(trifluoromethyl)phenyl)-3-(3-(6-methoxy-7-(2-methoxyethoxy)quinazolin-4-yloxy)phenyl)urea] | < 250 nM | – | – | < 250 nM | < 250 nM | C* (0.20 < C ≦ 0.40)
COc1cc2ncnc(Oc3cccc(NC(=O)Nc4cc(C(F)(F)F)ccn4)c3)c2cc1OC [Ex 141, 1-(3-(6,7-dimethoxyquinazolin-4-yloxy)phenyl)-3-(4-(trifluoromethyl)pyridin-2-yl)urea] | < 250 nM | C (0.20 < C ≦ 0.40) | – | < 250 nM | < 250 nM | –
COc1cc2ncnc(Sc3cccc(NC(=O)Nc4cc(C(C)(C)C)nn4-c4ccccc4)c3)c2cc1OC [Ex 154, 1-(3-tert-butyl-1-phenyl-1H-pyrazol-5-yl)-3-(3-(6,7-dimethoxyquinazolin-4-ylthio)phenyl)urea] | > 1000 nM | – | – | > 1000 nM | > 1000 nM | D* (D > 0.40)
COc1cc2ncnc(Oc3cccc(NC(=O)Nc4cc(C(F)(F)F)nn4C)c3)c2cc1OC [Ex 164, 1-[3-(6,7-dimethoxyquinazolin-4-yloxy)phenyl]-3-[1-methyl-3-(trifluoromethyl)-1H-pyrazol-5-yl]urea] | < 250 nM | – | – | < 250 nM | < 250 nM | C* (0.20 < C ≦ 0.40)
COc1cc2ncnc(Oc3cccc(NC(=O)Nc4cc(C(F)(F)F)n(C)n4)c3)c2cc1OC [Ex 165, 1-[3-(6,7-dimethoxyquinazolin-4-yloxy)phenyl]-3-[1-methyl-5-(trifluoromethyl)-1H-pyrazol-3-yl]urea] | < 250 nM | – | – | < 250 nM | < 250 nM | C* (0.20 < C ≦ 0.40)
COc1cc2ncnc(Oc3cccc(NC(=O)Nc4cc(C(C)(CF)CF)nn4-c4ccccc4)c3)c2cc1OC [Ex 167, 1-[3-(1,3-difluoro-2-methylpropan-2-yl)-1-phenyl-1H-pyrazol-5-yl]-3-[3-(6,7-dimethoxyquinazolin-4-yloxy)phenyl]urea] | > 1000 nM | – | – | > 1000 nM | > 1000 nM | D* (D > 0.40)
COc1ccc(NC(=O)Nc2cccc(Oc3ncnc4cc(OC)c(OC)cc34)c2)cc1Cl [Ex 180, 1-(3-chloro-4-methoxyphenyl)-3-(3-(6,7-dimethoxyquinazolin-4-yloxy)phenyl)urea] | < 250 nM | – | – | < 250 nM | < 250 nM | B* (0.10 < B ≦ 0.20)
COc1cc2ncnc(Oc3cccc(NC(=O)Nc4cccc(C(F)(F)F)c4)c3)c2cc1OC [Ex 181, 1-(3-(6,7-dimethoxyquinazolin-4-yloxy)phenyl)-3-(3-(trifluoromethyl)phenyl)urea] | < 250 nM | – | – | < 250 nM | < 250 nM | C* (0.20 < C ≦ 0.40)
COc1cc2ncnc(Sc3cccc(NC(=O)Nc4cc(C(F)(F)F)nn4C)c3)c2cc1OC [Ex 193, 1-[3-(6,7-dimethoxyquinazolin-4-ylthio)phenyl]-3-[1-methyl-3-(trifluoromethyl)-1H-pyrazol-5-yl]urea] | < 250 nM | – | – | < 250 nM | < 250 nM | D* (D > 0.40)
COc1cc2ncnc(Sc3cccc(NC(=O)Nc4cc(C(C)(CF)CF)nn4-c4ccccc4)c3)c2cc1OC [Ex 196, 1-[3-(1,3-difluoro-2-methylpropan-2-yl)-1-phenyl-1H-pyrazol-5-yl]-3-[3-(6,7-dimethoxyquinazolin-4-ylthio)phenyl]urea] | > 1000 nM | – | – | > 1000 nM | > 1000 nM | D* (D > 0.40)
